Read-outs that look alike come from different tables or passages of the source.
Legend:
Format in all cases: in vivo
[1] = test system: green peach aphid (Myzus persicae); test: Myzus test (MYZUPE spray treatment); details: for pest or weed control at 500 g/ha: Myzus persicae, foliar, 144 h, read-out: effect in % (aphids killed)
Protocol: 2. Myzus Test (MYZUPE Spray Treatment)
(§1) Solvents: 78.0 parts by weight of acetone • • 1.5 parts by weight of dimethylformamide Emulsifier: 0.5 part by weight of alkylaryl polyglycol ether
(§2) To produce a suitable preparation of active compound, 1 part by weight of active compound is mixed with the stated amounts of solvent and emulsifier, and the concentrate is diluted with emulsifier-containing water to the desired concentration.
Disks of Chinese cabbage leaves (Brassica pekinensis) infested by all stages of the green peach aphid (Myzus persicae) are sprayed with an active compound preparation of the desired concentration.
After 6 days, the effect in % is determined. 100% means that all of the aphids have been killed; 0% means that none of the aphids have been killed.

[2] = test system: larvae of the mustard beetle (Phaedon cochleariae); test: Phaedon test (PHAECO spray treatment); details: application rate 500 g/ha; spray on Chinese cabbage leaf disks; after 7 days
Protocol: 1. Phaedon Test (PHAECO Spray Treatment)
as §1, §2
Disks of Chinese cabbage leaves (Brassica pekinensis) are sprayed with an active compound preparation of the desired concentration and, after drying, populated with larvae of the mustard beetle (Phaedon cochleariae).
After 7 days, the effect in % is determined. 100% means that all beetle larvae have been killed; 0% means that none of the beetle larvae have been killed.

Lucilia cuprina larvae = test: Lucilia cuprina test (LUCICU); details: 100 ppm; treated horse meat; after 48 hours
Protocol: 5. Lucilia cuprina Test (LUCICU)
(§3) Solvent: dimethyl sulfoxide
(§4) To produce a suitable preparation of active compound, 10 mg of active compound are mixed with 0.5 ml of dimethyl sulfoxide, and the concentrate is diluted with water to the desired concentration.
Vessels containing horse meat treated with the active compound preparation of the desired concentration are populated with about 20 Lucilia cuprina larvae.
After 48 hours, the kill in % is determined 100% means that all larvae have been killed; 0% means that no larvae have been killed.

Cooperia curticei larvae = test: Cooperia curticei test (COOPCU); details: 100 ppm in Ringer solution; after 5 days
Protocol: 7. Cooperia curticei Test (COOPCU)
as §3
To produce a suitable preparation of active compound, 10 mg of active compound are mixed with 0.5 ml of dimethyl sulfoxide, and the concentrate is diluted with Ringer solution to the desired concentration. Vessels containing the active compound preparation of the desired concentration are populated with about 40 Cooperia curticei larvae.
After 5 days, the kill in % is determined. 100% means that all larvae have been killed; 0% means that no larvae have been killed.

adult Musca domestica = test: Musca domestica test (MUSCDO); details: 100 ppm; treated sponge; after 2 days
Protocol: 6. Musca domestica Test (MUSCDO)
as §3, §4
Vessels containing a sponge treated with the active compound formulation of the desired concentration are populated with adult Musca domestica.
After 2 days, the kill in % is determined. 100% means that all of the flies have been killed; 0% means that none of the flies have been killed.

[3] = test system: adult fleas (Ctenocephalides felis); test: Ctenocephalides felis; oral (CTECFE); details: 100 ppm in citrated cattle blood, after 2 days
Protocol: 4. Ctenocephalides felis; Oral (CTECFE)
Solvents: 1 part by weight of dimethyl sulfoxide
To produce a suitable preparation of active compound, 10 mg of active compound are mixed with 0.5 ml of dimethyl sulfoxide. A portion of the concentrate is diluted with citrated cattle blood, and the desired concentration is prepared.
About 20 unfed adult fleas (Ctenocephalides felis) are placed into a chamber which is closed at the top and bottom with gauze. A metal cylinder whose bottom end is closed with parafilm is placed onto the chamber. The cylinder contains the blood/active compound preparation, which can be taken up by the fleas through the parafilm membrane.
After 2 days, the kill in % is determined 100% means that all of the fleas have been killed; 0% means that none of the fleas have been killed.

[4] = test system: greenhouse red spider mite (Tetranychus urticae); test: Tetranychus test, OP-resistant (TETRUR spray treatment); details: application rate 100 g/ha; spray on infested bean leaf disks; after 6 days
Protocol: 3. Tetranychus Test, OP-Resistant (TETRUR Spray Treatment)
as §1, §2
Disks of bean leaves (Phaseolus vulgaris) which are infested by all stages of the greenhouse red spider mite (Tetranychus urticae) are sprayed with an active compound preparation of the desired concentration.
After 6 days, the effect in % is determined. 100% here means that all of the spider mites have been killed. 0% means that none of the spider mites have been killed.

[5] = application rate 500 g/ha, spray on infested Chinese cabbage leaf disks, after 6 days

Compound	pest or weed control at 500 g/ha ([1]; in Brassica rapa)	effect in % (beetle larvae killed) [2]	kill in % (larvae killed) (Lucilia cuprina larvae)	further results
O=c1nc2n(Cc3ccc(C(F)(F)F)nc3)cccc-2o1 [Example I-1, 4-(6-Trifluoromethylpyridin-3-ylmethyl)oxazolo[4,5-b]pyridin-2(4H)-one]	–	–	–	pest or weed control at 500 g/ha [1, 5]: 100%
O=c1nc2n(Cc3cnc(Cl)c(Cl)c3)cccc-2o1 [Example I-2, 4-(5,6-Dichloropyridin-3-ylmethyl)oxazolo[4,5-b]pyridin-2(4H)-one]	100%	100%	100%	–
O=c1nc2n(Cc3ccc(Cl)nc3)cccc-2o1 [Example I-3, 4-(6-Chloropyridin-3-ylmethyl)oxazolo[4,5-b]pyridin-2(4H)-one]	100%	100%	100%	kill in % (larvae killed) (Cooperia curticei larvae): 80%
O=c1nc2n(Cc3cnc(Cl)c(F)c3)cccc-2o1 [Example I-4, 4-(6-Chloro-5-fluoropyridin-3-ylmethyl)oxazolo[4,5-b]pyridin-2(4H)-one]	100%	100%	100%	kill in % (flies killed) (adult Musca domestica): 80%
Cc1cnc(Cn2cccc3oc(=O)nc2-3)cn1 [Example I-5, 4-(5-Methylpyrazin-2-ylmethyl)oxazolo[4,5-b]pyridin-2(4H)-one]	–	–	–	pest or weed control at 500 g/ha [1, 5]: 100%
O=c1nc2n(Cc3cnc(Cl)s3)cccc-2o1 [Example I-6, 4-(2-Chloro-1,3-thiazol-5-ylmethyl)oxazolo[4,5-b]pyridin-2(4H)-one]	100%	100%	100%	kill in % (fleas killed) [3]: 80%
O=c1nc2n(Cc3ccc(F)nc3)cccc-2o1 [Example I-9, 4-(6-Fluoropyridin-3-ylmethyl)oxazolo[4,5-b]pyridin-2(4H)-one]	100%	–	100%	–
O=c1nc2n(Cc3ccc(Br)nc3)cccc-2o1 [Example I-10, 4-(6-Bromopyridin-3-ylmethyl)oxazolo[4,5-b]pyridin-2(4H)-one]	100%	100%	–	–
O=c1nc2n(Cc3ccc(Cl)nc3)cc(Br)cc-2o1 [Example I-11, 6-Bromo-4-(6-chloropyridin-3-ylmethyl)oxazolo[4,5-b]pyridin-2(4H)-one]	100%	–	–	–
O=C1N=C2C(CCCN2Cc2ccc(Cl)nc2)O1 (stereo not shown) [Example I-16, 4-(6-Chloropyridin-3-ylmethyl)-5,6,7,7a-tetrahydrooxazolo[4,5-b]-pyridin-2(4H)-one]	100%	100%	–	effect in % (spider mites killed) [4]: 100%
CC(=O)N(Cc1ccc(Cl)nc1)c1ncccc1OCc1ccc(Cl)nc1 [Example I-16a, 2-[(N-acetyl, N′-(6-chloropyridin-3-ylmethyl)amino)]-3-(6-chloropyridin-3-ylmethoxy)pyridine]	–	–	–	effect in % (spider mites killed) [4]: 90%
O=c1oc2cccnc2n1Cc1cnc(Cl)c(Cl)c1 [IV-2, 3-(5,6-dichloropyridin-3-ylmethyl)oxazolo[4,5-b]-2(3H)-one]	–	–	–	effect in % (aphids killed) [1, 5]: 100%
O=c1oc2cccnc2n1Cc1ccc(C(F)(F)F)nc1 [IV-I, 3-(6-trifluoromethylpyridin-3-ylmethyl)oxazolo[4,5-b]-2(3H)-one]	–	–	–	effect in % (aphids killed) [1, 5]: 90%

— US20140113824A1, “BICYCLIC (THIO)CARBONYLAMIDINES” (BAYER INTELLECTUAL PROPERTY GMBH, priority 2011, published 2014)
